Like-named read-outs stand apart in the source and are kept apart here. Values belong to the compound of their own block, whether it stands above or below them.
What was measured:
[1] = target: T1, chimeric human H3 receptor (Homo sapiens, UniProt Q9Y5N1); assay: Chimeric human H3 receptor screening GTP binding assay (inhibition of histamine-stimulated GTP-gamma35S binding, Example 8); format: biochemical; details: 4 μM of the compound, 1 μM histamine, read-out: percent inhibition of the signal obtained with 1 μM histamine
T1 construct: made in house; host or cells: Sf9 insect cells (baculovirus); P2 membrane preparation
T1 sequence (Q9Y5N1 with tags, fused parts or gaps): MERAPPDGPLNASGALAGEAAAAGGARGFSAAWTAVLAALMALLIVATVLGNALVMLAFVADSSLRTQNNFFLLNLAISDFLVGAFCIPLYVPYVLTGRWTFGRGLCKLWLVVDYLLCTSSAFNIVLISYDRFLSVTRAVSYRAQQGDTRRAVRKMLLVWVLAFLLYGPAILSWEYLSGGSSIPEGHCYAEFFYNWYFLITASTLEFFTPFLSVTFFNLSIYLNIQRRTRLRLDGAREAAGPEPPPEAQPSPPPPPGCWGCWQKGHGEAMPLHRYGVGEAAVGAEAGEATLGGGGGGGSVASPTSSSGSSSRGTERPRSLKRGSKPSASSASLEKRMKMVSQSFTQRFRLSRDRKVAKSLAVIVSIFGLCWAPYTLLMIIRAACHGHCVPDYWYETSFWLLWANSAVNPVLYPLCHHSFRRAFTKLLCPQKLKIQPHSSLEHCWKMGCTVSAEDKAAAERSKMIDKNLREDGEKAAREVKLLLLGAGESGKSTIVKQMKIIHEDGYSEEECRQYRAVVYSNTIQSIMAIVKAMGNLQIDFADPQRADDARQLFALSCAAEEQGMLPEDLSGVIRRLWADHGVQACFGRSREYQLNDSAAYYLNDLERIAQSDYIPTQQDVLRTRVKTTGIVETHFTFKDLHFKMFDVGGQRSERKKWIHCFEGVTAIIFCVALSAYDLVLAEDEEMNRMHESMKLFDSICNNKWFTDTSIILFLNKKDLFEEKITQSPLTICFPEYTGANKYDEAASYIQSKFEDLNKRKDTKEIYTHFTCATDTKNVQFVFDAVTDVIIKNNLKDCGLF
Description: This Example illustrates a representative screening assay for evaluating inhibition of histamine-stimulated GTP-gamma^35S binding. Such GTP binding activity can be used to identify H3 antagonists and inverse agonists. A compound analyzed in this assay is referred to herein as a “test compound,” and the initial identification of antagonists and inverse agonists is performed using a test compound concentration of 4 μM.
Four independent baculoviral stocks (one directing the expression of the chimeric human H3 receptor and three directing the expression of each of the three subunits of a heterotrimeric G-protein) are used to infect a culture of Sf9 cells as described above. P2 membranes are prepared as described above, and are resuspended by Dounce homogenization (tight pestle) in GTP binding assay buffer (50 mM Tris pH 7.4, 120 mM NaCl, 5 mM MgCl2, 2 mM EGTA, 1 mg/ml BSA, 0.2 mg/ml bacitracin, 0.02 mg/ml aprotinin, 0.01 mg/ml saponin, 10 μM GDP) and added to assay tubes at a concentration of 35 μg protein/reaction tube. Non-radiolabeled test compounds are added to separate reactions at a concentration of 4 μM along with 1 μM histamine (agonist). Reactions are initiated by the addition of […] GTP-gamma^35S with a final assay volume of 0.20 ml.
After a 60-min incubation at room temperature, reactions are terminated by vacuum filtration over GF/C filters (pre-soaked in 50 mM Tris pH 7.4, 120 mM NaCl plus 0.1% BSA) followed by washing with ice-cold buffer (50 mM Tris pH 7.4, 120 mM NaCl). The amount of receptor-bound (and thereby membrane-bound) GTP-gamma^35S is determined by measuring the bound radioactivity, preferably by liquid scintillation spectrometry of the washed filters. Non-specific binding is determined using 10 uM GTP-gammaS and typically represents less than 5 percent of total binding. After subtraction of non-specific binding, data is expressed as percent inhibition of 1 μM histamine signal.
Neutral antagonists are those test compounds that reduce the histamine-stimulated GTP binding activity towards, but not below, baseline levels. In contrast, in the absence of added histamine, inverse agonists reduce the GTP binding activity of the receptor-containing membranes below baseline. Any test compound that elevates GTP binding activity above baseline in the absence of added histamine in this assay is defined as having agonist activity.

[2] = target: T1, chimeric human H3 receptor; assay: Chimeric human H3 receptor GTP binding assay (agonist-stimulated GTP-gamma35S binding, Example 7); format: biochemical
Summary of the method: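 Sf9 membranes co-expressing chimeric human H3 receptor and heterotrimeric G-protein, 35 μg/tube, in pH 7.4 Tris buffer with 10 μM GDP. Test compounds (10^−10–10^−6 M) competed against 1 μM histamine, […] GTP-gamma35S, 60 min at room temperature. Filter-bound radioactivity counted; IC50 converted to Ki by Cheng-Prusoff. Agonism/inverse agonism tested without histamine (EC50).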

[3] = assay of Example 7, "*" in Ki of Table II
[4] = Table II, "*" = Ki in assay of Example 7 less than 1 micromolar
[5] = Table II "Ki", symbol *, assay of Example 7

Compound: Cc1ccc(-c2ccc3c(c2)CCN(CC(=O)N2CCN(C(C)C)CC2)C3)cc1 [Compound 438, 2-[2-(4-isopropylpiperazin-1-yl)-2-oxoethyl]-6-(4-methylphenyl)-1,2,3,4-tetrahydroisoquinoline]
- inhibition at 4 µM ([1]; "†" in Ki of Table II): ≥ 90%

Compound: CC(C)N1CCN(C(=O)CN2CCc3cc(-c4ccc(OC(F)(F)F)cc4)ccc3C2)CC1 [Compound 481, 2-[2-(4-isopropylpiperazin-1-yl)-2-oxoethyl]-6-[4-(trifluoromethoxy)phenyl]-1,2,3,4-tetrahydroisoquinoline]
- inhibition at 4 µM ([1]; "†" in Ki of Table II): ≥ 90%

Compound: Cc1ccc(-c2ccc3c(c2)CCN(CC(=O)N2CCN(C(C)C)CC2)C3)cc1C [Compound 450, 6-(3,4-dimethylphenyl)-2-[2-(4-isopropylpiperazin-1-yl)-2-oxoethyl]-1,2,3,4-tetrahydroisoquinoline]
- inhibition at 4 µM ([1]; "†" in Ki of Table II): ≥ 90%

Compound: O=C(CN1CCc2nc(-c3ccccc3Oc3ccccc3)sc2C1)N1CCN(C2CCC2)CC1 [Compound 345, 5-[2-(4-cyclobutylpiperazin-1-yl)-2-oxoethyl]-2-(2-phenoxyphenyl)-4,5,6,7-tetrahydro[1,3] thiazolo[5,4-c]pyridine]
- inhibition at 4 µM ([1]; "†" in Ki of Table II): ≥ 90%

Compound: Cc1ccc(-c2nc3c(s2)CN(CC(=O)N2CCN(C4CCC4)CC2)CC3)c(F)c1 [Compound 301, 5-[2-(4-cyclobutylpiperazin-1-yl)-2-oxoethyl]-2-(2-fluoro-4-methylphenyl)-4,5,6,7-tetrahydro[1,3]thiazolo [5,4-c]pyridine]
- Ki [2, 3]: < 1000 nM

Compound: CC1(N2CCN(C(=O)CN3CCc4cc(-c5cncnc5)ccc4C3)CC2)CCC1 [Compound 169, 2-{2-[4-(1-methylcyclobutyl)piperazin-1-yl]-2-oxoethyl}-6-pyrimidin-5-yl-1,2,3,4-tetrahydroisoquinoline]
- Ki [2, 4]: < 1000 nM

Compound: O=C(CN1CCc2nc(N3CCC(F)(F)C3)ccc2C1)N1CCN(C2CCC2)CC1 [Compound 242, 6-[2-(4-cyclobutylpiperazin-1-yl)-2-oxoethyl]-2-(3,3-difluoropyrrolidin-1-yl)-5,6,7,8-tetrahydro-1,6-naphthyridine]
- Ki [2, 4]: < 1000 nM

Compound: Cc1cc(-c2nc3c(s2)CN(CC(=O)N2CCN(C4CCC4)CC2)CC3)ccc1F [Compound 303, 5-[2-(4-cyclobutylpiperazin-1-yl)-2-oxoethyl]-2-(4-fluoro-3-methylphenyl)-4,5,6,7-tetrahydro[1,3]thiazolo [5,4-c]pyridine]
- Ki [2, 3]: < 1000 nM

Compound: N#Cc1nc2c(s1)CN(CC(=O)N1CCN(C3CCC3)CC1)CC2 [Compound 102, 5-[2-(4-cyclobutylpiperazin-1-yl)-2-oxoethyl]-4,5,6,7-tetrahydro[1,3]thiazolo [5,4-c]pyridine-2-carbonitrile]
- Ki [2, 4]: < 1000 nM

Compound: CC1CCCCN1c1ccc2c(n1)CCN(CC(=O)N1CCN(C3CCC3)CC1)C2 (stereo not shown) [Compound 676, 6-[2-(4-cyclobutylpiperazin-1-yl)-2-oxoethyl]-2-(2-methylpiperidin-1-yl)-5,6,7,8-tetrahydro-1,6-naphthyridine]
- Ki [2, 5]: < 1000 nM

Compound: O=C(CN1CCc2cc(N3CCCC3)nnc2C1)N1CCN(C2CCC2)CC1 [Compound 221, 7-[2-(4-cyclobutylpiperazin-1-yl)-2-oxoethyl]-3-pyrrolidin-1-yl-5,6,7,8-tetrahydropyrido[3,4-c]pyridazine]
- Ki [2, 4]: < 1000 nM

Continued, values first:

- inhibition at 4 µM ([1]; "†" in Ki of Table II): ≥ 90%
Compound: COc1cccc(-c2ccc3c(c2)CCN(CC(=O)N2CCN(C4CCCCC4)CC2)C3)c1 [Compound 477, 2-[2-(4-cyclohexylpiperazin-1-yl)-2-oxoethyl]-6-(3-methoxyphenyl)-1,2,3,4-tetrahydroisoquinoline]

- inhibition at 4 µM ([1]; "†" in Ki of Table II): ≥ 90%
Compound: Cc1cccc(-c2ccc3c(c2)CCN(CC(=O)N2CCN(C4CCC4)CC2)C3)c1 [Compound 432, 2-[2-(4-cyclobutylpiperazin-1-yl)-2-oxoethyl]-6-(3-methylphenyl)-1,2,3,4-tetrahydroisoquinoline]

- inhibition at 4 µM ([1]; Table II "Ki", symbol †): ≥ 90%
Compound: O=C(CN1CCc2cc(-c3ccc(F)c(Cl)c3)ccc2C1)N1CCN(C2CCCC2)CC1 [Compound 580, 6-(3-chloro-4-fluorophenyl)-2-[2-(4-cyclopentylpiperazin-1-yl)-2-oxoethyl]-1,2,3,4-tetrahydroisoquinoline]

- inhibition at 4 µM ([1]; "†" in Ki of Table II): ≥ 90%
Compound: Cc1cc(C)cc(-c2ccc3c(c2)CCN(CC(=O)N2CCN(C4CCCC4)CC2)C3)c1 [Compound 456, 2-[2-(4-cyclopentylpiperazin-1-yl)-2-oxoethyl]-6-(3,5-dimethylphenyl)-1,2,3,4-tetrahydroisoquinoline]

- inhibition at 4 µM ([1]; Table II "Ki", symbol †): ≥ 90%
Compound: O=C(CN1CCc2cc(-c3ccc(Cl)c(Cl)c3)ccc2C1)N1CCN(C2CCC2)CC1 [Compound 594, 2-[2-(4-cyclobutylpiperazin-1-yl)-2-oxoethyl]-6-(3,4-dichlorophenyl)-1,2,3,4-tetrahydroisoquinoline]

- inhibition at 4 µM ([1]; Table II "Ki", symbol †): ≥ 90%
Compound: O=C(CN1CCc2cc(-c3ccc(F)c(F)c3)ccc2C1)N1CCN(C2CCC2)CC1 [Compound 589, 2-[2-(4-cyclobutylpiperazin-1-yl)-2-oxoethyl]-6-(3,4-difluorophenyl)-1,2,3,4-tetrahydroisoquinoline]

- inhibition at 4 µM ([1]; "†" in Ki of Table II): ≥ 90%
Compound: CCc1cccc(-c2ccc3c(c2)CCN(CC(=O)N2CCN(C4CCCC4)CC2)C3)c1 [Compound 468, 2-[2-(4-cyclopentylpiperazin-1-yl)-2-oxoethyl]-6-(3-ethylphenyl)-1,2,3,4-tetrahydroisoquinoline]

- inhibition at 4 µM ([1]; "†" in Ki of Table II): ≥ 90%
Compound: Cc1ccc(-c2ccc3c(c2)CCN(CC(=O)N2CCN(C4CCCC4)CC2)C3)cc1C [Compound 448, 2-[2-(4-cyclopentylpiperazin-1-yl)-2-oxoethyl]-6-(3,4-dimethylphenyl)-1,2,3,4-tetrahydroisoquinoline]

- inhibition at 4 µM ([1]; "†" in Ki of Table II): ≥ 90%
Compound: CC(C)c1ccc(-c2ccc3c(c2)CCN(CC(=O)N2CCN(C4CCCCC4)CC2)C3)cc1 [Compound 445, 2-[2-(4-cyclohexylpiperazin-1-yl)-2-oxoethyl]-6-(4-isopropylphenyl)-1,2,3,4-tetrahydroisoquinoline]

- inhibition at 4 µM ([1]; "†" in Ki of Table II): ≥ 90%
Compound: CC(C)(C)c1ccc(-c2ccc3c(c2)CCN(CC(=O)N2CCN(C4CCCC4)CC2)C3)cc1 [Compound 472, 6-(4-tert-butylphenyl)-2-[2-(4-cyclopentylpiperazin-1-yl)-2-oxoethyl]-1,2,3,4-tetrahydroisoquinoline]

- inhibition at 4 µM ([1]; Table II "Ki", symbol †): ≥ 90%
Compound: O=C(CN1CCc2cc(-c3ccccc3Oc3ccccc3)ccc2C1)N1CCN(C2CCC2)CC1 [Compound 575, 2-[2-(4-cyclobutylpiperazin-1-yl)-2-oxoethyl]-6-(2-phenoxyphenyl)-1,2,3,4-tetrahydroisoquinoline]

- Ki [2, 3]: < 1000 nM
Compound: O=C(CN1CCc2nc(-c3ccc(F)cc3)sc2C1)N1CCN(C2CCC2)CC1 [Compound 297, 5-[2-(4-cyclobutylpiperazin-1-yl)-2-oxoethyl]-2-(4-fluorophenyl)-4,5,6,7-tetrahydro[1,3]thiazolo [5,4-c]pyridine]

- Ki [2, 4]: < 1000 nM
Compound: O=C(CN1CCc2cc(-c3cscn3)ccc2C1)N1CCN(C2CCC2)CC1 [Compound 119, 2-[2-(4-cyclobutylpiperazin-1-yl)-2-oxoethyl]-6-(1,3-thiazol-4-yl)-1,2,3,4-tetrahydroisoquinoline]

- Ki [2, 5]: < 1000 nM
Compound: CN(C)CCc1ccccc1-c1ccc2c(c1)CCN(CC(=O)N1CCN(C3CCC3)CC1)C2 [Compound 643, 2-(2-{2-[2-(4-cyclobutylpiperazin-1-yl)-2-oxoethyl]-1,2,3,4-tetrahydroisoquinolin-6-yl}phenyl)-N,N-dimethylethanamine]
